Consider seven compounds from paper PMC8765781, “A platform of assays for the discovery of anti-Zika small-molecules with activity in a 3D-bioprinted outer-blood-retina model” (PLoS ONE, 2022).

Test [1] deals with ZIKV-RLuc (Cambodian strain FSS13025). Put plainly: microbe, parasite or virus in culture. The conditions noted are these: for AC50: Zika virus, Vero. Type of test: cell-based, Zika virus.
Where [2] appears, read: read-out: Log AC50 (M) (converted).

Like-named read-outs stand apart in the source and are kept apart here.

Take `CC(=O)O[C@H]1C(=O)[C@@]2(C)C([C@H](OC(=O)c3ccccc3)[C@]3(O)C[C@H](OC(=O)[C@H](O)[C@@H](NC(=O)c4ccccc4)c4ccccc4)C(C)=C1C3(C)C)[C@]1(OC(C)=O)CO[C@@H]1C[C@@H]2O` (stereo partly drawn) [NCGC00024995-10]: in test [1], the “CC-v2 (curve class classification v2 of the dose response curve)” value (“CC-v2” below) is -2.2; the “Efficacy (difference between neutral response and maximum compound response)” value is -75.217; the “Max Resp (difference between neutral response and compound response for highest compound concentration)” value was -63.948; the activity was half-maximal at 2.08e-05 M (AC50). For the same compound, in test [1] (setting [2]), the AC50 is 2.08e-05 M. In the test with Vero cells, the AC50 worked out at 20.8 µM and the “Log AC50 (M)” value was -4.6827 M.

As for `C[S+]([O-])c1ccc(-c2nc(-c3ccc(F)cc3)c(-c3ccncc3)[nH]2)cc1` (stereo not drawn) [NCGC00025035-05], in test [1], the “CC-v2” value is -2.1; the “Efficacy (difference between neutral response and maximum compound response)” value is recorded as -107.599; the “Max Resp (difference between neutral response and compound response for highest compound concentration)” value was -87.79; the activity was half-maximal at 4.79e-05 M (AC50). Also, the AC50 in test [1] (setting [2]) is 4.79e-05 M. Further, in the test with Vero cells, the AC50 worked out at 47.9 µM and the “Log AC50 (M)” value was -4.3199 M.

On to `CC#C[C@]1(O)CC[C@H]2[C@@H]3CCC4=CC(=O)CCC4=C3[C@@H](c3ccc(N(C)C)cc3)C[C@@]21C` [NCGC00025179-12], for which, in test [1], the “CC-v2” value is -3; the “Efficacy (difference between neutral response and maximum compound response)” value is recorded as -109.046; the “Max Resp (difference between neutral response and compound response for highest compound concentration)” value is recorded as -95.447; the AC50 came out at 2.61e-05 M. For the same compound, the AC50 in test [1] (setting [2]) was 2.61e-05 M. Moreover, in the test with Vero cells, the activity was half-maximal at 26.1 µM (AC50) and the “Log AC50 (M)” value is on record as -4.5827 M.

Regarding `C[C@H]1O[C@@H](O[C@H]2[C@@H](O)C[C@H](O[C@H]3[C@@H](O)C[C@H](O[C@H]4CC[C@@]5(C)[C@H](CC[C@@H]6[C@@H]5C[C@@H](O)[C@]5(C)[C@@H](C7=CC(=O)OC7)CC[C@]65O)C4)O[C@@H]3C)O[C@@H]2C)C[C@H](O)[C@@H]1O` [NCGC00090797-01], in test [1], the “CC-v2” value is listed as -1.1; the “Efficacy (difference between neutral response and maximum compound response)” value is -107.599; the “Max Resp (difference between neutral response and compound response for highest compound concentration)” value is reported as -98.918; the half-maximal activity concentration (AC50) was found to be 4.65e-07 M. Besides, the concentration at half-maximal activity (AC50) in test [1] (setting [2]) is 4.65e-07 M. Moreover, in the test on Vero cells, the concentration at half-maximal activity (AC50) is 0.465 µM and the “Log AC50 (M)” value was -6.3327 M.

As for `Oc1c(Cl)cc(Cl)c(Cl)c1Cc1c(O)c(Cl)cc(Cl)c1Cl` [NCGC00091195-08], in test [1], the “CC-v2” value is recorded as -1.1; the “Efficacy (difference between neutral response and maximum compound response)” value was -99.169; the “Max Resp (difference between neutral response and compound response for highest compound concentration)” value was -99.917; the AC50 was 2.33e-06 M. In test [1] (setting [2]), the half-maximal activity concentration (AC50) was 2.33e-06 M. Also, in the test with Vero cells, the AC50 amounted to 2.33 µM and the “Log AC50 (M)” value is given as -5.6327 M.

`C[C@]12CC[C@@H]3c4ccc(O)cc4CC[C@H]3[C@@H]1CC[C@@H]2O` [NCGC00091544-08]: in test [1], the “CC-v2” value is given as -2.2; the “Efficacy (difference between neutral response and maximum compound response)” value was -64.056; the “Max Resp (difference between neutral response and compound response for highest compound concentration)” value was -67.89; the activity was half-maximal at 2.69e-05 M (AC50). The concentration at half-maximal activity (AC50) in test [1] (setting [2]) is 2.69e-05 M. In the test on Vero cells, the AC50 is 26.9 µM and the “Log AC50 (M)” value was -4.5699 M.

As for `CCCCCCCCCCC(C)(C)C(=O)Nc1c(OC)cc(OC)cc1OC` [NCGC00092343-02], in test [1], the “CC-v2” value is on record as -3; the “Efficacy (difference between neutral response and maximum compound response)” value is listed as -55.755; the “Max Resp (difference between neutral response and compound response for highest compound concentration)” value is given as -44.379; the half-maximal activity concentration (AC50) worked out at 3.69e-05 M. Besides, in test [1] (setting [2]), the AC50 was 3.69e-05 M. Besides, the “Log AC50 (M)” value in the test with Vero cells is listed as -4.4327 M.

As usually defined, the AC50 is the concentration giving half of the maximal activity seen.
